Legend:
[1] = test system: P. taeda embryogenic cell lines; experiment: Embryo development and germination with abscisic acid applied in a liquid phase under polyester membranes; assay type: cell-based, Pinus taeda
[2] = test system: P. taeda embryogenic cell lines; experiment: as above; assay type: cell-based, Pinus taeda; remark: listed apart in the source
Experimental: Loblolly pine embryogenic cell cultures were initiated, proliferated, cryopreserved, retrieved, further proliferated on gelled maintenance medium, and placed into liquid suspension for plating on embryo development medium MSG1 as described in Examples 3-4 above. Three replicate plates of each line were prepared for each of the following treatments:
Treatment B: the cells were plated onto polyester support membranes laid onto 1 ml liquid embryo development medium MSG1 containing PEG but lacking gelling agent and activated charcoal, pipetted over gelled embryo development medium MSG1
Treatment C: the cells were plated onto polyester support membranes laid onto 1 ml liquid embryo development medium MSG1 containing PEG but lacking gelling agent and activated charcoal, pipetted over gelled embryo development medium MSG1 lacking abscisic acid.
Embryos were developed, harvested and germinated as described in Example 4 above. The results of the counts of high quality cotyledonary stage embryos, and the germination tests with these embryos, are shown in Table 20 below.
In another experiment, an attempt had been made to decrease the osmotic potential of the liquid phase in order to facilitate filter sterilization.

[3] = test system: unknown fungus on Eucalyptus camaldulensis leaf explants; experiment: Decontamination of Eucalyptus leaf explants of fungus; assay type: cell-based
Text: Eucalyptus camaldulensis leaves were explanted from seedlings for the production of callus, and then discovered to be contaminated with an unknown fungus. Contaminated explants were shaken together to obtain the same degree of contamination for all explants to be used in this decontamination example. Contamination of each explant with the fungus was verified by streaking the explant on a potato dextrose agar plate, and observing independent growth of the fungus on the potato dextrose agar.
Approximately half the Eucalyptus leaf explants were then treated to decontamination by washing and collection of the tissue using polyester support membranes after each wash, similar to the improved decontamination method described in Example 6, split among five treatments:
Following the washing of half the material according to the protocol described in […] in the treatments described in the paragraph above, using three washes of 30 minutes each, the washed and non-washed material was then divided over the same support membrane treatments A-F as described in Example 8, except that nested within each support membrane treatment was the prior washing or lack of washing treatment, and within each of these latter treatments, the five fungicidal treatments listed above were further nested, wherein the antifungal agents benomyl, miconazole, nystatin or thiophanate were added to the medium subtending the tissue and supports in place of cefotaxime. Finally, non-contaminated explants were submitted to all treatments to determine the effects of the treatments on plant regeneration in the absence of fungus. Five explants were plated for each treatment combination.
The explants were then cultured in a growth chamber set at 27±3° C. and under low light, and were transferred biweekly using the same support membranes but supplying fresh sterile liquid and solid medium.

[4] = test system: Hybrid pine embryogenic cell lines; experiment: Embryogenicity after biphasic maintenance treatments, hybrid pine; assay type: cell-based; details: for % germination: embryos from cultures maintained over eradicant liquid phase; for Average Number Of Embryos Harvested Per Plate: eradicant in liquid phase during maintenance, cefotaxime 500 mg/L, TIMENTIN 400 mg/L
[5] = test system: Hybrid pine embryogenic cell lines; experiment: Embryo development over eradicants in liquid phase of biphasic development and maturation media, hybrid pine; assay type: cell-based; details: eradicant in liquid phase of development/maturation media, cefotaxime 500 mg/L, TIMENTIN 400 mg/L
Text: Agrobacterium contamination has been reported as recurring sometimes after long periods of time. With many species, eradicants are incorporated in all culture media used after the initial infection, including selection media, proliferation media, media to induce the formation of organs or the development of somatic embryos, media to elongate or mature organs or embryos that are formed, and regeneration media. For pine embryogenic cells, incorporation of eradicants into the embryo development and maturation media has been difficult due to the high temperature of polymerization of the media resulting from the incorporation of a high level of polyethylene glycol. […] Three replicate plates were generated from each of six embryogenic cell lines (two from each of two P. taeda families and one hybrid pine family) for each of the treatments, and assessed for the ability of the cultures to develop high quality harvestable stage 3 embryos. […] At week 9, stage 3 embryos were counted and those deemed suitable for germination were harvested.

[6] = test system: P. taeda embryogenic cell lines; experiment: Embryo development over eradicants in liquid phase of biphasic development and maturation media, P. taeda; assay type: cell-based, Pinus taeda; details: eradicant in liquid phase of development/maturation media, cefotaxime 500 mg/L, TIMENTIN 400 mg/L
Text: Agrobacterium contamination has been reported as recurring sometimes after long periods of time. With many species, eradicants are incorporated in all culture media used after the initial infection, including selection media, proliferation media, media to induce the formation of organs or the development of somatic embryos, media to elongate or mature organs or embryos that are formed, and regeneration media. For pine embryogenic cells, incorporation of eradicants into the embryo development and maturation media has been difficult due to the high temperature of polymerization of the media resulting from the incorporation of a high level of polyethylene glycol. Therefore, loblolly and hybrid pine cell lines grown and maintained as described in Examples 3-4 above were placed on polyester support membranes over gelled MSG1 embryo development and maturation media as described in Example 4 above, except that some of the development and maturation media were overlaid with various eradication treatments under the polyester support membranes. The treatments consisted of either no liquid phase, or a liquid phase identical to the gelled phase (except that gelling agent and activated charcoal were omitted) and incorporating either cefotaxime or TIMENTIN® as an eradicant. Three replicate plates were generated from each of […] (two from each of two P. taeda families and one hybrid pine family) for each of the treatments, and assessed for the ability of the cultures to develop high quality harvestable stage 3 embryos. Dishes were incubated in a dark growth chamber at 23±2° C. The membrane supports were transferred to new petri dishes containing fresh medium every 3 weeks. At week 9, stage 3 embryos were counted and those deemed suitable for germination were harvested.

[7] = test system: Hybrid pine embryogenic cell lines; experiment: Growth of pine embryogenic cells on polyester supports over biphasic media with eradicants, hybrid pine; assay type: cell-based; details: liquid phase under polyester support, cefotaxime 500 mg/L, TIMENTIN 400 mg/L
[8] = test system: P. taeda embryogenic cell lines; experiment: Growth of pine embryogenic cells on polyester supports over biphasic media with eradicants, P. taeda; assay type: cell-based, Pinus taeda; details: liquid phase under polyester support, cefotaxime 500 mg/L, TIMENTIN 400 mg/L
Text: (§1) Loblolly pine cell lines were used which had been grown and maintained as described in Examples 3-4 above, and purposely infected with bacteria as described in Example 6 above. Support membranes bearing plant tissue were then placed on gelled DCR2 maintenance media with various decontamination treatments. These treatments consisted of antibiotics (cefotaxime, carbenicillin, AUGMENTIN® or TIMENTIN®) as eradicants incorporated into the gelled DCR2 maintenance or selection media, the antibiotics incorporated into liquid DCR3 pipetted in a thin film over gelled DCR2 maintenance media lacking antibiotics, or the antibiotics incorporated into liquid DCR3 which was saturated into a filter paper laid on gelled DCR2 maintenance media lacking antibiotics. Support membranes bearing control cells were placed either on gelled DCR2 maintenance media, over liquid DCR3 pipetted in a thin film over gelled DCR2 maintenance media lacking antibiotics, or over a filter paper saturated with liquid DCR3 and laid on gelled DCR2 maintenance media lacking antibiotics. Decontamination and maintenance were continued for a period of approximately 12 weeks with transfer of the polyester support membranes, bearing the cells, every 14-21 days.

[9] = test system: P. taeda embryogenic cell lines; experiment: Embryogenicity after biphasic maintenance treatments, P. taeda; assay type: cell-based, Pinus taeda; details: for % germination: embryos from cultures maintained over eradicant liquid phase; for Average Number Of Embryos Harvested Per Plate: eradicant in liquid phase during maintenance, cefotaxime 500 mg/L, TIMENTIN 400 mg/L
Text: as §1

[10] = P1, liquid phase with same abscisic acid content as gelled phase
[11] = P1, gelled phase lacking abscisic acid and liquid phase containing abscisic acid
[12] = P2, gelled phase lacking abscisic acid and liquid phase containing abscisic acid
[13] = P2, liquid phase with same abscisic acid content as gelled phase

Question: Which “Average Number Of High Quality Cotyledonary Embryos Per Plate” value ([1]; L5, Liquid Phase containing ABA and PEG) does the source give for CC1=CC(=O)CC(C)(C)[C@@]1(O)/C=C/C(C)=C\C(=O)O [Abscisic Acid, Abscisic acid] here?
Answer: Its value is 26.3 ± 45.6.

Question: What about the “Average Number Of High Quality Cotyledonary Embryos Per Plate” value ([1]; L5, Liquid Phase containing ABA but no PEG) of the same compound?
Answer: The value was 201.0 ± 44.5.

Question: What about the “Average Number Of High Quality Cotyledonary Embryos Per Plate” value ([1]; L9, Liquid Phase containing ABA and PEG) of the same compound?
Answer: The value was 64.0 ± 23.6.

Question: And the “Average Number Of High Quality Cotyledonary Embryos Per Plate” value ([1]; L9, Liquid Phase containing ABA but no PEG)?
Answer: Its value is 97.0 ± 20.7.

Question: And the “Average Number Of High Quality Cotyledonary Embryos Per Plate” value ([1]; L42, Liquid Phase containing ABA and PEG)?
Answer: Its value is 0.

Question: What about the “Average Number Of High Quality Cotyledonary Embryos Per Plate” value ([1]; L42, Liquid Phase containing ABA but no PEG) of the same compound?
Answer: Its value is 0.

Question: What about the “Percentage Of Resulting Embryos That Germinated” value [1, 10] of the same compound?
Answer: Its value is 55.0%.

Question: And the “Average Number Of High Quality Cotyledonary Embryos Per Plate” value [2, 11]?
Answer: Its value is 30.3 ± 7.1.

Question: What about the “Percentage Of Resulting Embryos That Germinated” value [2, 11] of the same compound?
Answer: Its value is 52.5%.

Question: And the “Average Number Of High Quality Cotyledonary Embryos Per Plate” value [2, 10]?
Answer: The value was 44.3 ± 21.1.

Question: What about the “Average Number Of High Quality Cotyledonary Embryos Per Plate” value [2, 12] of the same compound?
Answer: Its value is 48.7 ± 5.0.

Question: What about the “Percentage Of Resulting Embryos That Germinated” value [2, 12] of the same compound?
Answer: The value was 57.5%.

Question: What about the “Average Number Of High Quality Cotyledonary Embryos Per Plate” value [2, 13] of the same compound?
Answer: Its value is 44.3 ± 4.9.

Question: What about the “Percentage Of Resulting Embryos That Germinated” value [2, 13] of the same compound?
Answer: Its value is 67.5%.

Question: What about the “decrease in embryos per plate” value ([2]; abscisic acid in liquid phase only, overall use of 5% of the amount) of the same compound?
Answer: Its value is 30-60%.

Question: How did the “contaminated explants in which decontamination did not succeed” value ([3]; contaminated Eucalyptus explants) turn out when Clc1ccc(COC(Cn2ccnc2)c2ccc(Cl)cc2Cl)c(Cl)c1 (stereo not shown) [miconazole, Miconazole] was run?
Answer: The value was 7.5%.

Question: What about the decontamination rate ([3]; contaminated Eucalyptus explants, 50 mg/L in wash medium) of the same compound?
Answer: Its decontamination rate is 92.5%.

Question: Which “% germination” value ([4]; H1) does the source give for CO/N=C(\C(=O)N[C@@H]1C(=O)N2C(C(=O)O)=C(COC(C)=O)CS[C@H]12)c1csc(N)n1 [cefotaxime] here?
Answer: Its value is “(96%)”.

Question: What about the “Average Number Of Embryos Harvested Per Plate” value ([4]; H1) of the same compound?
Answer: The value was 152.0 ± 40.8.

Question: What about the “% germination” value ([4]; H2) of the same compound?
Answer: The value was “(88%)”.

Question: And the “Average Number Of Embryos Harvested Per Plate” value ([4]; H2)?
Answer: The value was 77.0 ± 10.4.

Question: What about the “Number of Harvestable Cotyledonary Stage Embryos Developed” value ([5]; H1) of the same compound?
Answer: Its value is 200.0 ± 51.2.

Question: What about the “Number of Harvestable Cotyledonary Stage Embryos Developed” value ([5]; H2) of the same compound?
Answer: The value was 210.0 ± 67.1.

Question: And the “Number of Harvestable Cotyledonary Stage Embryos Developed” value ([6]; P1)?
Answer: Its value is 208.0 ± 94.8.

Question: And the “Number of Harvestable Cotyledonary Stage Embryos Developed” value ([6]; P2)?
Answer: The value was 269.0 ± 23.3.

Question: And the “Number of Harvestable Cotyledonary Stage Embryos Developed” value ([6]; P3)?
Answer: Its value is 25.0 ± 17.7.

Question: And the “Number of Harvestable Cotyledonary Stage Embryos Developed” value ([6]; P4)?
Answer: Its value is 18.0 ± 1.0.

Question: What about the “Average growth over a one-month period (two transfers)” value ([7]; H1) of the same compound?
Answer: The value was 4.53 + 0.28.

Question: What about the “Average growth over a one-month period (two transfers)” value ([7]; H2) of the same compound?
Answer: Its value is 8.76 + 0.63.

Question: And the “Average growth over a one-month period (two transfers)” value ([8]; P1)?
Answer: Its value is 7.20 + 0.28.

Question: What about the “Average growth over a one-month period (two transfers)” value ([8]; P2) of the same compound?
Answer: The value was 1.93 + 0.24.

Question: What about the “Average growth over a one-month period (two transfers)” value ([8]; P3) of the same compound?
Answer: The value was 6.75 + 0.25.

Question: And the “Average growth over a one-month period (two transfers)” value ([8]; P4)?
Answer: The value was 8.97 + 0.19.

Question: And the “% germination” value ([9]; P1)?
Answer: The value was “(10%)”.

Question: What about the “Average Number Of Embryos Harvested Per Plate” value ([9]; P1) of the same compound?
Answer: Its value is 87.0 ± 37.5.

Question: What about the “% germination” value ([9]; P2) of the same compound?
Answer: The value was “(66%)”.

Question: What about the “Average Number Of Embryos Harvested Per Plate” value ([9]; P2) of the same compound?
Answer: Its value is 81.7 ± 44.5.

Question: What about the “% germination” value ([9]; P3) of the same compound?
Answer: The value was “(21%)”.

Question: And the “Average Number Of Embryos Harvested Per Plate” value ([9]; P3)?
Answer: Its value is 14.3 ± 4.2.

Question: And the “% germination” value ([9]; P4)?
Answer: The value was “(36%)”.

Question: And the “Average Number Of Embryos Harvested Per Plate” value ([9]; P4)?
Answer: Its value is 34.0 ± 16.1.

Question: For CCCCNC(=O)n1c(NC(=O)OC)nc2ccccc21 [benomyl, Benomyl], which “phenolic release into the medium from plant tissue” value ([3]; also from successfully decontaminated plant tissue) is on record?
Answer: The value was “elicited considerable phenolic release into the medium”.

Question: And the decontamination ([3]; in the washing (100 mg/L) and incorporated into the medium below the polyester supports)?
Answer: The decontamination was “largely ineffective in decontamination”.
